Patent publication US4542027A, “Laidlomycin phenylcarbamate” (Syntex (U.S.A.) Inc., priority 1984, dated 1985)

What was measured:
rumen fluid [1] = experiment: Propionic acid production (VFA) in in vitro rumen fluid fermentation; type: cell-based, steer; set-up: Propionic acid production rate: unit not given here
Experimental: (§1) Two separate fermentation models were used to evaluate effects of laidlomycin and laidlomycin phenylcarbamate upon volatile fatty acids (VFA) and lactic acid production. Test compounds were solubilized in absolute ethanol at concentrations of 1 mg/ml and were serially diluted twofold in absolute ethanol through six additional concentrations. Aliquots of 200 μl were transferred to 18×150 mm test tubes, which were used as incubation vessels, and the ethanol was evaporated.
(§2) For both fermentation models rumen fluid from a rumen-fistulated steer, consuming a 100% alfalfa hay diet, was obtained before the morning feeding. The fluid was strained through four layers of cheesecloth, mixed with an equal volume of CO2 -saturated buffer, and 10 ml was transferred to each of the incubation vessels. All tubes were fitted with gas-release stoppers under an atmosphere of CO2 and were incubated in a shaking waterbath at 39° C. […] This medium, designed to be microbiologically nonselective, encouraged VFA production with no accumulation of lactic acid. Buffer used to study lactic acid accumulation (table 1) contained 150 mmol of glucose/liter and had little buffering capacity. This medium favored growth of lactic acid-producing bacteria and allowed rapid production of lactic acid coupled with a precipitous drop in pH from pH 6.2 to less than pH 5 during the course of an incubation.
(§3) Fermentation was terminated at 9 h for the VFA fermentations and at 5.5 h for the lactic acid fermentations by addition of 2 ml of 25% metaphosphoric acid to the incubation tubes. Aliquots were frozen overnight, thawed, centrifuged at 30,000 × g for 10 min and the resulting supernatants analyzed for either L(+)-lactic acid or VFA. The L(+)-lactic acid was analyzed via a specific enzymatic assay in which the concentration of lactic acid in the fermentation broth was quantified by the increase in absorbance of light at 340 nm when nicotinamide adenine dinucleotide was reduced by lactic acid with the aid of L(+)-lactic dehydrogenase. VFA were analyzed via gas chromatography using a Varian chromatograph equipped with a flame ionization detector. Acids were separated on a glass column (0.64×182.9 cm) packed with 10% SP-1200/1% H3 PO4 on Chromosorb-WAW®, 80-100 mesh. This column was obtained pre-packed from Supelco, Inc., Bellefont, Pennsylvania. Chromatographic conditions included a column temperature of 145° C., an injector temperature of 190° C., a detector temperature of 190° C., a carrier gas flow of 45 ml/min and an injection volume of 1 μl.
(§4) Net production rates of all acids were calculated by subtracting the concentration of acids in the incubation fluid before incubation from the concentration determined in each tube after incubation. Molar proportions of acetic, propionic, and butyric acids produced were calculated by dividing the production rate of individual acids by the sum of the production rates of the three acids. Data were analyzed by analysis of variance (SAS, 1979). Comparisons (Duncan's multiple range test) of individual means were made when treatment effects (P<0.05) were indicated.

rumen fluid [2] = experiment: L(+)-Lactic acid production in in vitro rumen fluid fermentation; type: cell-based, steer; set-up: Lactic acid production rate: unit not given here
Experimental: as §1, §2, §3, §4

[3] = test system: Eimeria acervulina and Eimeria maxima; experiment: Anticoccidial activity in broiler chicks challenged with Eimeria acervulina and Eimeria maxima; type: in vivo; conditions: for Feed efficiency, feed/gain: 7 d; for Feed consumption / Gain / Final weight: cage of 12 chicks; for Final weight / Lesion scores, middle intestine / Lesion scores, upper intestine: 7 days after challenge; for Lesion scores, middle intestine / Lesion scores, upper intestine: scale 0 (least) to 4 (most severe)
Text: Broiler chicks were reared, 12 per cage, in wire-floored battery cages under conditions which prevented extraneous coccidial infections. All chicks received a nonmedicated starter diet ad libitum until 8 days of age. From 8 days of age until the end of the study, chicks received the test diets which contained either O, 99, 121, 143 or 165 ppm of laidlomycin phenylcarbamate per kg of feed. Three replicate pens per treatment were used for all levels of experimental compounds tested.
At 10 days of age, birds were orally challenged with 200,000 oocycts of the coccidia, Eimeria acervulina, and 20,000 oocysts of Eimeria maxima per bird. The birds were weighed immediately preceding the coccidial challenge and again 7 days later. At 7 days following coccidial challenge, all birds were killed and lesions in the upper and middle sections of the intestinal tracts of six preselected birds per cage were scored on a scale of 0 to 4 based upon their number and severity. Feed present at the time of coccidial challenge and remaining 7 days later was used to determine the effects of compounds upon total feed consumption and feed efficiency.

[4] = Stability at 60° C. in methanol-water, acetate buffer; type: physicochemical
Experimental: Laidlomycin phenylcarbamate, laidlomycin isopopylcarbamate and two laidlomycin esters were prepared and their relative stability at 60° C. methanol-water, acetate buffer was determined. A complete list of the esters and carbamates which were tested under these conditions follows: […]

[5] = Stability in soybean millrun feed premix at 60° C.; type: physicochemical
Experimental: These materials were then stored at 60° C. and analyzed for starting material at one week. The premix composition is given in Table 5 and the stability data in Table 6.

[6] = all non-zero concentrations, vs unmedicated
[7] = in comparison with laidlomycin acylates

CCC(=O)OC(C(C)C(=O)O)C(C)C1OC2(CCC(C)(C3CCC(C)(C4OC(C5OC(O)(COC(=O)Nc6ccccc6)C(C)CC5C)CC4C)O3)O2)CC(O)C1C (stereo not drawn) [Laidlomycin phenylcarbamate, laidlomycin phenylcarbamate]
Propionate production enhancement (in words) (rumen fluid [1]): surprisingly and unexpectedly high
Propionic acid production rate (rumen fluid [1]; 0.31 μg/ml, 9 h): 22.8
Propionic acid production rate (rumen fluid [1]; 0.62 μg/ml, 9 h): 23.4
Propionic acid production rate (rumen fluid [1]; 1.25 μg/ml, 9 h): 25.2
Propionic acid production rate (rumen fluid [1]; 2.50 μg/ml, 9 h): 25.7
Propionic acid production rate (rumen fluid [1]; 5.00 μg/ml, 9 h): 26.9
Propionic acid production rate (rumen fluid [1]; 10.00 μg/ml, 9 h): 27.0
Propionic acid production rate (rumen fluid [1]; 20.00 μg/ml, 9 h): 28.2
Propionic acid production, percentage of control (rumen fluid [1]; 20.00 μg/ml, 9 h, 540 min): 133 % of control
activity at 0.31 µg/mL (rumen fluid [1]; 9 h, 0.31 μg/ml, 9 h, read-out: Propionic acid production, percentage of control): 107%
activity at 1.25 µg/mL (rumen fluid [1]; 9 h, 1.25 μg/ml, 9 h, read-out: Propionic acid production, percentage of control): 118%
activity at 2.5 µg/mL (rumen fluid [1]; 9 h, 2.50 μg/ml, 9 h, read-out: Propionic acid production, percentage of control): 121%
activity at 5 µg/mL (rumen fluid [1]; 9 h, 5.00 μg/ml, 9 h, read-out: Propionic acid production, percentage of control): 126%
activity at 10 µg/mL (rumen fluid [1]; 9 h, 10.00 μg/ml, 9 h, read-out: Propionic acid production, percentage of control): 127%
activity at 20 µg/mL (rumen fluid [1]; 9 h, 20.00 μg/ml, 9 h, read-out: Propionic acid production, percentage of control): > 130%
activity at 0.62 µg/mL (rumen fluid [1]; 9 h, read-out: Propionic acid production, percentage of control, 0.62 μg/ml, 9 h): 110%
Propionic acid production enhancement relative to laidlomycin (rumen fluid [1]; over all concentrations): more potent than laidlomycin (P<0.05)
Lactic acid suppression (in words) (rumen fluid [2]): surprisingly and unexpectedly high
Lactic acid production rate (rumen fluid [2]; 0.31 μg/ml, 5.5 h): 28.4
activity at 0.31 µg/mL (rumen fluid [2]; 0.31 μg/ml, 5.5 h, read-out: Lactic acid production, percentage of control): 102%
Lactic acid production rate (rumen fluid [2]; 0.62 μg/ml, 5.5 h): 27.7
activity at 0.62 µg/mL (rumen fluid [2]; 0.62 μg/ml, 5.5 h, read-out: Lactic acid production, percentage of control): 99%
Lactic acid production rate (rumen fluid [2]; 1.25 μg/ml, 5.5 h): 15.6
activity at 1.25 µg/mL (rumen fluid [2]; 1.25 μg/ml, 5.5 h, read-out: Lactic acid production, percentage of control): 56%
Lactic acid production rate (rumen fluid [2]; 2.50 μg/ml, 5.5 h): 6.1
Lactic acid production, percentage of control (rumen fluid [2]; 2.50 μg/ml, 5.5 h): 21 % of control
activity at 2.5 µg/mL (rumen fluid [2]; 2.50 μg/ml, 5.5 h, read-out: Lactic acid production, percentage of control): 21%
Lactic acid production rate (rumen fluid [2]; 5.00 μg/ml, 5.5 h): 3.8
activity at 5 µg/mL (rumen fluid [2]; 5.00 μg/ml, 5.5 h, read-out: Lactic acid production, percentage of control): 13%
Lactic acid production rate (rumen fluid [2]; 10.00 μg/ml, 5.5 h): 4.0
activity at 10 µg/mL (rumen fluid [2]; 10.00 μg/ml, 5.5 h, read-out: Lactic acid production, percentage of control): 14%
Lactic acid production rate (rumen fluid [2]; 20.00 μg/ml, 5.5 h): 3.8
activity at 20 µg/mL (rumen fluid [2]; 20.00 μg/ml, 5.5 h, read-out: Lactic acid production, percentage of control): 13%
Inhibition of lactic acid production relative to laidlomycin (rumen fluid [2]; over all concentrations tested): superior to laidlomycin (P<0.05)
Feed efficiency, feed/gain ([3]; 99 mg/kg of feed): 2.21
Feed consumption ([3]; 99 mg/kg of feed): 3.40 kg/7 d
Gain ([3]; 99 mg/kg of feed): 1.54 kg/7 d
Final weight ([3]; 99 mg/kg of feed): 3.86 kg
Lesion scores, middle intestine ([3]; 99 mg/kg of feed): 1.43
Lesion scores, upper intestine ([3]; 99 mg/kg of feed): 1.20
Feed efficiency, feed/gain ([3]; 121 mg/kg of feed): 2.16
Feed consumption ([3]; 121 mg/kg of feed): 3.19 kg/7 d
Gain ([3]; 121 mg/kg of feed): 1.47 kg/7 d
Final weight ([3]; 121 mg/kg of feed): 3.72 kg
Lesion scores, middle intestine ([3]; 121 mg/kg of feed): 1.57
Lesion scores, upper intestine ([3]; 121 mg/kg of feed): 1.23
Feed efficiency, feed/gain ([3]; 143 mg/kg of feed): 2.19
Feed consumption ([3]; 143 mg/kg of feed): 3.46 kg/7 d
Gain ([3]; 143 mg/kg of feed): 1.58 kg/7 d
Final weight ([3]; 143 mg/kg of feed): 3.97 kg
Lesion scores, middle intestine ([3]; 143 mg/kg of feed): 1.47
Lesion scores, upper intestine ([3]; 143 mg/kg of feed): 0.50
Feed efficiency, feed/gain ([3]; 165 mg/kg of feed): 1.84
Feed consumption ([3]; 165 mg/kg of feed): 3.47 kg/7 d
Gain ([3]; 165 mg/kg of feed): 1.89 kg/7 d
Final weight ([3]; 165 mg/kg of feed): 4.21 kg
Lesion scores, middle intestine ([3]; 165 mg/kg of feed): 0.70
Lesion scores, upper intestine ([3]; 165 mg/kg of feed): 0.66
Protection against coccidiosis ([3]; all non-zero concentrations tested): protection against coccidiosis was afforded by all non-zero concentrations
Lesion scores in the upper and middle intestines (in words) [3, 6]: greatly reduced lesion scores in the upper and middle intestines
Quantity of feed required per unit of gain (in words) [3, 6]: halved the quantity of feed required per unit of gain
Weight gain (in words) [3, 6]: doubled weight gain
half-life ([4]; 60° C., methanol-water, acetate buffer, read-out: t1/2 (converted)): 32.7 days
Stability in solution (in words) [4, 7]: highly stable
Stability in feed premixes (in words) [5, 7]: highly stable
remaining at 168 h ([5]; soybean millrun feed premix, 60° C., one week, soybean millrun premix, 10% (w/w)): 100%
